According to US20220152080A1 (priority 2019, published 2022):

What was measured:
[1] = system: vRNP nuclear export (viral NP protein), WSN/H1N1; assay type: cell-based, influenza A virus
[2] = system: RanBP1 (Crm1 export pathway); assay type: cell-based
WSN/H1N1 = assay type: cell-based, influenza A virus; conditions: read-out: EC50 (progeny virus titers)
[3] = system: WSN/H1N1, PR8M/H1N1, pdm09Hamburg/H1N1, Panama/H3N2, KAN-1/H5N1, Anhui/H7N9, SC35M/H7N7, B/Lee; assay type: cell-based, influenza A and B viruses; conditions: 15 μM, 24 h p.i., MOI 0.01, A549 or MDCKII cells, DMSO control = 100%
[4] = system: vRNPs of WSN/H1N1, PR8M/H1N1, pdm09Hamburg/H1N1, Panama/H3N2, KAN-1/H5N1, Anhui/H7N9, SC35M/H7N7, B/Lee; assay type: cell-based, influenza A and B viruses; conditions: 15 μM, treated 3 h p.i., fixed 9 h or 12 h p.i., MOI 5
GSK-3β = assay type: cell-based
vRNP-M1 interaction = assay type: cell-based, influenza A virus
ERK1/2 [5] = assay type: cell-based
RSK1 [6] = conditions: in vitro; cited from earlier work
ERK1/2 [7] = assay: TPA stimulation: nuclear localization of ERK1/2 in A549 cells; assay type: cell-based; conditions: A549, TPA-stimulated, 1 h; unstimulated 27.99%±1.97%
Description: (§1) (A,C) A549 cells were stimulated with TPA (200 nM). The solvent DMSO served as negative control. After 1 h the cells were fixed and cellular localization of RSK2 or ERK1/2 (Alexa-561) was analyzed by epifluorescence microscopy. Nuclei were stained with Dapi. Dashed squares indicate zoom-in areas. Shown are representative epifluorescence microscopy pictures of single focal planes. Results of one out of three independent experiments are shown. Scale bar represents 50 μm.(B,D) Quantification of the cellular localization of RSK2 or ERK1/2 from (A,C). 15 epifluorescence microscopy pictures of each sample were analyzed in terms of the RSK2 localization using the ImageJ “Intensity Ratio Nuclei Cytoplasm Tool”. Results are depicted as means±SD of three independent experiments. Statistical significance was analyzed by unpaired t-test with Welch's correction (**p≤0.01).
(§2) To exclude unspecific staining of RSK2 and ERK1/2 the Raf/MEK/ERK-pathway was stimulated with TPA. It is known that the incubation with TPA leads to the activation of the Raf/MEK/ERK-pathway resulting in the nuclear localization of ERK1/2 and RSKs within minutes after the stimulation. […] After 1 h the cells were fixed and cellular localization of RSK2 or ERK1/2 (Alexa-561) was analyzed by epifluorescence microscopy. […] Statistical significance was analyzed by unpaired t-test with Welch's correction (**p≤0.01). […]

RSK2 = assay: TPA stimulation: nuclear localization of RSK2 in A549 cells; assay type: cell-based; conditions: A549, TPA-stimulated, 1 h; unstimulated 29.37%±1.15%
Description: as §1, §2

[8] = system: viral NP protein (Serine residues 269 and 392); assay type: cell-based, influenza A virus
RSK1 [9] = assay type: cell-based
[10] = molecular target: p90 ribosomal S6 kinase (N-terminal kinase domain); conditions: cited from earlier work
MCF-7 = conditions: cited from earlier work
RSK substrate p140 = conditions: not that of RSK or RSK upstream kinases even at 100 μM; cited from earlier work

O=C(O)c1ccc(F)c(F)c1Nc1ccc(I)cc1Cl [ATR-002]
nuclear retention of the viral NP protein (vRNPs) [1]: nuclear retention | nuclear retention of RanBP1 [2]: not detected

CC(C)CCN1c2nc(Nc3cc(F)c(O)c(F)c3)ncc2N(C)C(=O)C1C (centres unmarked) [BI-D1870]
EC50 (WSN/H1N1): 2.81 µM | nuclear retention of the viral NP protein (vRNPs) [1]: negatively affected the vRNP nuclear export | reduction of progeny viral titers, all tested viruses [3]: 80 to 90% | nuclear retention of newly synthesized vRNPs, all tested viruses [4]: nuclear retention of newly synthesized vRNPs | GSK-3ß phosphorylation (GSK-3β): concentration dependent reduction | amount of M1 co-purified with Strep-PB2-vRNPs (vRNP-M1 interaction): decreased amount of M1 | ERK1/2 phosphorylation state (ERK1/2 [5]): induction of the ERK1/2 phosphorylation state | IC50 (RSK1 [6]): […]

CCCCCCCCCCCCCC(=O)O[C@@H]1[C@@H](C)[C@@]2(O)[C@@H](C=C(CO)C[C@]3(O)C(=O)C(C)=C[C@@H]23)[C@@H]2C(C)(C)[C@]12OC(C)=O [TPA]
nuclear accumulation of ERK1/2 (ERK1/2 [7]): 48.02%±2.25% | nuclear accumulation of RSK2 (RSK2): 34.89%±0.67%

O=C(NOCC1CC1)c1ccc(F)c(F)c1Nc1ccc(I)cc1Cl [CI-1040]
phosphorylation state of NP Serine residues 269 and 392 [8]: decreased phosphorylation state | virus induced RSK activation (RSK1 [9]): blocked

CC(=O)O[C@@H]1[C@@H](OC(C)=O)[C@@H](O)[C@H](Oc2c(-c3ccc(O)cc3)oc3cc(O)cc(O)c3c2=O)O[C@H]1C [SL0101-1]
EC50 (WSN/H1N1): 10.5 µM | nuclear retention of the viral NP protein (vRNPs) [1]: nuclear retention | nuclear retention of RanBP1 [2]: not detected | Ki ([10]; selective, reversible, ATP-competitive): 1000 nM | IC50 ([10]; with 10 μM ATP, read-out: IC50 RSK kinase activity): 89 nM | inhibition of proliferation of MCF-7 (MCF-7): inhibit the proliferation of MCF-7 | block of PDB-induced cellular phosphorylation of p140 (RSK substrate p140): specifically block

CCC(=C/[C@H](C)C/C=C/C(C)=C/[C@@H](C)C(=O)[C@@H](C)[C@H](O)[C@@H](C)C/C(C)=C/C(=O)O)/C=C/[C@@H]1OC(=O)C=C[C@@H]1C [Leptomycin B]
nuclear retention of the viral NP protein (vRNPs) [1]: highest retention rates | nuclear retention of RanBP1 [2]: nuclear retention of RanBP1 was only detected for the Leptomycin B treated samples
